Values quoted from earlier work as cited in patent US5629431A, “Inhibitors of retroviral proteases” (Hoechst Aktiengesellschaft, priority 1989, dated 1997).
Square brackets hold non-standard residues; d marks the D form. Peptide text beside a SMILES is read from it. * marks the point of attachment. Sta = CC(C)C[C@H](N)[C@@H](O)CC(=O)O; Isovaleryl = CC(C)CC(=O)*

Key:
[1] = test system: formation of the nuclear protein p24 and activity of reverse transcriptase; settings: high doses; in the biosynthesis (v. d. Helm et al., FEBS Lett. 247, 1989)
[2] = test system: HIV protease; settings: literature value (Katoh et al., Nature 329, 1987); read-out: IC50 against HIV protease

For `CC(C)CC(=O)N[C@H](C(=O)N[C@H](C(=O)N[C@@H](CC(C)C)[C@@H](O)CC(=O)N[C@@H](C)C(=O)N[C@@H](CC(C)C)[C@@H](O)CC(=O)O)C(C)C)C(C)C` [pepstatin A] (Isovaleryl-VV[Sta]A[Sta]-OH), the “activity of reverse transcriptase” value [1] is listed as “reduction”, the “formation of the nuclear protein p24” value [1] is listed as “reduction” and the IC50 [2] is listed as […].
